The target of one test is T1, IRAK3-ePL (Homo sapiens, UniProt Q9Y616).
T1 construct: expressed in transfected cells; host or cells: 293T CRBN OE/GSPT1 G575N KI cells, lentiviral transduction, puromycin selection
Nature of the test: IRAK3-ePL overexpressing degradation assay. The test is classed as cell-based. Particulars: IRAK3-ePL Lenti-X 293T CRBN/GSPT1 G575N cells, overnight incubation, top dose 10 μM. Here is the method: Example B1. IRAK3-ePL Overexpressing Degradation Assay
Stable cell lines were generated by the following protocol. 3×10^5 Lenti-X 293T cells (Clonetech) were plated in 0.8 mL of media in a 12-well plate and incubated overnight at 37° C./5% CO2. Packaging plasmid (0.4 μg, pMD), envelope plasmid (0.4 μg, pSP), and lentiviral transfer IRAK3-ePL plasmid (0.8 μg, IRAK3 sequence NM_007199.3) were mixed in 0.1 mL of Opti-MEM and incubated for 5 min. Simultaneously, 2.4 μL of Lipofectamine 2000 (Invitrogen) was added to 0.1 mL of Opti-MEM (Gibco) and incubated for 5 min. The plasmid DNA and lipofectamine were combined and the mixture was allowed to incubate for 20 min. DNA:Lipofectamine Opti-MEM mixtures were then added to previously plated cells dropwise and the cells were incubated for ~16 h at 37° C./5% CO2. Following incubation, the media was removed and 1.2 mL of fresh media was added per well. Lenti-X 293T cells were incubated for ~30 h at 37° C./5% CO2. […] Following incubation, media was removed from the Lenti-X 293T wells and passed through a […]. Part of the viral supernatant was used to transduce cells and the rest was stored at −80° C. Viruses were then added individually (0.5 mL virus) to each well of the 293T^CRBN OE/GSPT1 G575N KI cells, followed by addition of polybrene (10 mg/mL Millipore) to each well at a final concentration of 5.0 μg/mL. Cells were incubated for ~24 h at 37° C./5% CO2. After aspirating media off plates, cells were washed with DPBS, trypsinized and plated in a 10 cm dish in 15 mL of media and 1 μg/mL puromycin. Following incubation of cells for ~72 h at 37° C./5% CO2, media was aspirated off plates, and cells were washed with DPBS and trypsinized. The cells were plated in a 15 cm dish in 40 mL of media with 1.0 μg/mL Puromycin (Gibco) and incubated for ~72 h at 37° C./5% CO2. Following incubation, media was removed and cells were washed with DPBS and trypsinized. The majority of cells were resuspended in Invitrogen freezing media and stored away (~6-8×10^6 cells/vial).
IRAK3-ePL cellular dose response curve degradation assays were performed by the following protocol. Compounds to be tested were dispensed into a white 384-well tissue-culture treated plate using an acoustic liquid handler. Dilutions were prepared based on a 25 μL assay volume in duplicate 10 point 3-fold serial dilutions starting with a 10 μM dose. Negative control wells were included, which only contain 0.2% DMSO to calculate 100% signal. Positive control wells containing 30 μM Ataluren (luciferase inhibitor) were included to calculate the background signal level. All wells were backfilled to a final DMSO concentration of 0.2% to ensure DMSO uniformity across wells. IRAK3-ePL expressing cells (IRAK3-ePL Lenti-X 293T^CRBN/GSPT1 G575N) were washed, trypsinized, counted, and resuspended in fresh DMEM (Gibco) to give a cell concentration of 200,000 cells/mL. 25 μL of cells (5,000 cells/well) were dispensed into the wells of the 384-well plate prespotted with compounds in the previous step and incubated overnight at 37° C./5% CO2. Following incubation, the 384-well plate was taken out of the incubator and left at room temperature for 30 min. InCELL hunter reagent was prepared according to manufacturer's instructions (EA reagent, lysis buffer, and substrate reagent in a 1:1:4 ratio, Cat #96-0002, DiscoverX), which was added to the 384-well plate 25 μL per well. Following the incubation of the plate for 1 h at room temperature, the luminescence signal was read using a ViewLux plate reader. Data was processed and analyzed in ActivityBase software. In short, the average luminescence values of the positive control wells were subtracted from the rest of the wells for background correction, and all luminescence values were normalized to the DMSO control wells. The average value of the DMSO control wells was set to equal 100% of the relative IRAK3-ePL protein levels. […]

The target in a further test is T2, IRAK3 (Homo sapiens, UniProt Q9Y616).
T2 sequence (Q9Y616 1-596): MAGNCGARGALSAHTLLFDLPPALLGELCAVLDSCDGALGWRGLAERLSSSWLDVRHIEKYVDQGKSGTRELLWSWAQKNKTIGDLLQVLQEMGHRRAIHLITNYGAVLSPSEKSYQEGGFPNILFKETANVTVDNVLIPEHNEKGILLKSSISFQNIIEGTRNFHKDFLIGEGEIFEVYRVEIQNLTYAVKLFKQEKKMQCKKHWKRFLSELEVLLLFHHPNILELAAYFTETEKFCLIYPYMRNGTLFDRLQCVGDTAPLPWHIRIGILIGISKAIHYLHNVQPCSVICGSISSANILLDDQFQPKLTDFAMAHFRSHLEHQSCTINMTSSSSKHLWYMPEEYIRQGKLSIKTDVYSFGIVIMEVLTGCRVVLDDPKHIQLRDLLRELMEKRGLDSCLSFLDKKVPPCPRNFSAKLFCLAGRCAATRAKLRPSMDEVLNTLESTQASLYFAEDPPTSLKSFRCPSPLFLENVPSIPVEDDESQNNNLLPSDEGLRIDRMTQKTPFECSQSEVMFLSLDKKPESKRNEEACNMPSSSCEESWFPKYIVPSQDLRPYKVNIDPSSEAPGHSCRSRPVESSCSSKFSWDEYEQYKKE
Nature of the test: IRAK endogenous HTRF degradation assay (Total-IRAK3 HTRF kit). The test is classed as cell-based. Particulars: endogenous IRAK3, overnight incubation; % Dmax = 100 − Ymin. Also noted: IRAK Endogenous HTRF Degradation Assay; endogenous in cells. The procedure: Example B2. IRAK Endogenous HTRF Degradation Assay
Cells (~50k) were plated in Cisbio 96-well low volume white plates (Cisbio: cat #66PL96005). Compounds were dissolved in DMSO and a 3-fold serial dilution was performed using a TECAN D300E. Cells were incubated with the compound overnight. Total-IRAK3 HTRF kit from Cisbio was used for degradation analysis (Cisbio: 63ADK101PEH). Cryptate and D2 antibodies were diluted in Detection buffer as per manufacturers recommendation. Then 2 μL of each solution was added to 16 μL lysate. Buffer control (lysis buffer detection buffer), Cryptate control (lysis buffer+cryptate antibody+detection buffer), and Negative control (lysis buffer+cryptate antibody+D2 antibody) were made as per manufacturers recommendation. Post incubation with antibodies the HTRF signal was measured using a Perkin Elmer Envision reader and the HTRF signal was calculated using formula: (Emission at 665 nm/Emission at 615 nm)*10,000. All HTRF values were normalized to the average value of DMSO. The average value of the DMSO control wells were set to equal 100% of the relative IRAK3 protein levels. Normalized luminescence values were plotted on a graph as a function of compound concentration. Compound concentration was plotted on the x-axis and the corresponding normalized IRAK3 protein levels on the y-axis. The EC50 value (the half-maximum effective concentration) of a compound for the degradation of the IRAK3 was calculated using a four-parameter logistic model (sigmoidal dose-response model) (FIT=(A+{(B−A)/1+[(C/x)D]})) where C is the inflection point (EC50), D is the […], and A and B are the low and high limits of the fit, respectively). The Ymin was calculated by determining the lowest percentage of target protein remaining following compound treatment. Dmax was calculated from Ymin (% Dmax=100−Ymin).
Using these assays, IC50, Dmax, EC50, and DC50 values of the following compounds were determined. Dmax is defined as the maximum percent degradation achieved and DC50 is the concentration at which 50% degradation is achieved.

Here are results for 1 compound from patent US20260234124A1, “Substituted Pyrazolyl-Pyridinyl Compounds as Ligand Directed Degraders of IRAK3” (Celgene Corporation, priority 2022, published 2026).

Consider `Cc1ncsc1-c1ccc(CNC(=O)[C@@H]2C[C@@H](O)CN2C(=O)[C@@H](NC(=O)COCCOCCOCCOCCOCCN2CCC(n3cc(-c4cnc(N)c(O[C@H](C)c5c(Cl)ccc(F)c5Cl)c4)cn3)CC2)C(C)(C)C)cc1` [Compound 5, (2S,4R)-1-((S)-20-(4-(4-(6-amino-5-((R)-1-(2,6-dichloro-3-fluorophenyl)ethoxy)pyridin-3-yl)-1H-pyrazol-1-yl)piperidin-1-yl)-2-(tert-butyl)-4-oxo-6,9,12,15,18-pentaoxa-3-azaicosanoyl)-4-hydroxy-N-(4-(4-methylthiazol-5-yl)benzyl)pyrrolidine-2-carboxamide], for which the Dmax on IRAK3-ePL (HEK-293T, maximum percentage loss of target protein) was found to be 23%; on IRAK3, 34%. The DC50 at IRAK3-ePL (read-out: IRAK3 ePL degradation EC50) was over 10 µM.

As a reminder, the Dmax is the greatest extent of degradation seen. Lower therefore signals a partial loss of target.
